# Literature values, collected in PubChem BioAssay AID1259409 (Chemical Carcinogenesis Research Information System (CCRIS), 2018).
# “And” between values parts separate entries of the source, which are not always exact repeats. Equal values may be shown once.
# System: rodent chemically induced tumor inhibition, incidence and multiplicity
# Test: CCRIS tumor inhibitor studies
# Settings: Species: RAT, Promoter: NONE USED
smiles,measurement,setting,value
CN1C(C(=O)Nc2ccccn2)=C(O)c2ccccc2S1(=O)=O,"tumour outcome (control, treated, inhibition, significance)","Carcinogen: AZOXYMETHANE, 25843-45-2, Dose [Inhibitor]: 0, 400 PPM IN DIET BEGINNING 1 WK PRIOR TO CARCINOGEN TREATMENT FOR DURATION OF STUDY (STUDY DURATION: 54 WK), Route [Inhibitor]: ORAL, Strain/Sex: F344/MALE, Target Tissue: Type of Lesion: COLON: ADENOCARCINOMA, Dose [Carcinogen]: 15 MG/KG/BW 1/WK FOR 2 WK","58%, 19%, 67%, p<0.01"
same,"tumour outcome (control, treated, inhibition, significance)","Carcinogen: AZOXYMETHANE, 25843-45-2, Dose [Inhibitor]: 0, 400 PPM IN DIET BEGINNING 1 WK PRIOR TO CARCINOGEN TREATMENT FOR DURATION OF STUDY (STUDY DURATION: 54 WK), Route [Inhibitor]: ORAL, Strain/Sex: F344/MALE, Target Tissue: Type of Lesion: COLON: ADENOMA, Dose [Carcinogen]: 15 MG/KG/BW 1/WK FOR 2 WK","6%, 3%, 50%, not calculated"
same,"tumour outcome (control, treated, inhibition, significance)","Carcinogen: AZOXYMETHANE, 25843-45-2, Dose [Inhibitor]: 0, 400 PPM IN DIET BEGINNING PRIOR TO CARCINOGEN DOSE AND CONTINUING FOR DURATION OF STUDY (STUDY DURATION: 54 WK), Route [Inhibitor]: ORAL, Strain/Sex: F344/MALE, Target Tissue: Type of Lesion: COLON: ADENOCARCINOMA, Dose [Carcinogen]: 15 MG/KG 1/WK FOR 2 WK","72%, 22%, 69%, p<0.001"
same,"tumour outcome (control, treated, inhibition, significance)","Carcinogen: AZOXYMETHANE, 25843-45-2, Dose [Inhibitor]: 0, 400 PPM IN DIET BEGINNING PRIOR TO CARCINOGEN DOSE AND CONTINUING FOR DURATION OF STUDY (STUDY DURATION: 54 WK), Route [Inhibitor]: ORAL, Strain/Sex: F344/MALE, Target Tissue: Type of Lesion: COLON: ADENOMA, Dose [Carcinogen]: 15 MG/KG 1/WK FOR 2 WK","14%, 6%, 57%, not calculated"
same,"tumour outcome (control, treated, inhibition, significance)","Carcinogen: AZOXYMETHANE, 25843-45-2, Dose [Inhibitor]: 0, 400 PPM IN DIET BEGINNING PRIOR TO CARCINOGEN DOSE AND CONTINUING FOR DURATION OF STUDY (STUDY DURATION: 54 WK), Route [Inhibitor]: ORAL, Strain/Sex: F344/MALE, Target Tissue: Type of Lesion: SMALL INTESTINE: ADENOCARCINOMA, Dose [Carcinogen]: 15 MG/KG 1/WK FOR 2 WK","50%, 8%, 84%, p<0.001"
same,"tumour outcome (control, treated, inhibition, significance)","Carcinogen: AZOXYMETHANE, 25843-45-2, Dose [Inhibitor]: 0, 400 PPM IN DIET BEGINNING PRIOR TO CARCINOGEN DOSE AND CONTINUING FOR DURATION OF STUDY (STUDY DURATION: 54 WK), Route [Inhibitor]: ORAL, Strain/Sex: F344/MALE, Target Tissue: Type of Lesion: SMALL INTESTINE: ADENOMA, Dose [Carcinogen]: 15 MG/KG 1/WK FOR 2 WK","3%, 0%, 100%, not calculated"
same,"tumour outcome (control, treated, inhibition, significance)","Carcinogen: AZOXYMETHANE, 25843-45-2, Dose [Inhibitor]: 0, 400 PPM IN DIET FOR 56 WK BEGINNING 2 WK PRIOR TO CARCINOGEN TREATMENT (STUDY DURATION: 56 WK), Route [Inhibitor]: ORAL, Strain/Sex: F344/MALE, Target Tissue: Type of Lesion: COLON(DISTAL): TUMOR, Dose [Carcinogen]: 15 MG/KG 1/WK FOR 2 WK","52%, 22%, 58%, p<0.05"
same,"tumour outcome (control, treated, inhibition, significance)","Carcinogen: AZOXYMETHANE, 25843-45-2, Dose [Inhibitor]: 0, 400 PPM IN DIET FOR 56 WK BEGINNING 2 WK PRIOR TO CARCINOGEN TREATMENT (STUDY DURATION: 56 WK), Route [Inhibitor]: ORAL, Strain/Sex: F344/MALE, Target Tissue: Type of Lesion: COLON(PROXIMAL): TUMOR, Dose [Carcinogen]: 15 MG/KG 1/WK FOR 2 WK","38%, 7%, 82%, p<0.001"
same,"tumour outcome (control, treated, inhibition, significance)","Carcinogen: AZOXYMETHANE, 25843-45-2, Dose [Inhibitor]: 0, 400 PPM IN DIET FOR 56 WK BEGINNING 2 WK PRIOR TO CARCINOGEN TREATMENT (STUDY DURATION: 56 WK), Route [Inhibitor]: ORAL, Strain/Sex: F344/MALE, Target Tissue: Type of Lesion: SMALL INTESTINE(DISTAL): TUMOR, Dose [Carcinogen]: 15 MG/KG 1/WK FOR 2 WK","12%, 9%, 25%, not significant"
same,"tumour outcome (control, treated, inhibition, significance)","Carcinogen: AZOXYMETHANE, 25843-45-2, Dose [Inhibitor]: 0, 400 PPM IN DIET FOR 56 WK BEGINNING 2 WK PRIOR TO CARCINOGEN TREATMENT (STUDY DURATION: 56 WK), Route [Inhibitor]: ORAL, Strain/Sex: F344/MALE, Target Tissue: Type of Lesion: SMALL INTESTINE(PROXIMAL): TUMOR, Dose [Carcinogen]: 15 MG/KG 1/WK FOR 2 WK","33%, 9%, 73%, p<0.05"
same,"tumour outcome (control, treated, inhibition, significance)","Carcinogen: INTRARECTAL, Dose [Inhibitor]: N-METHYLNITROSOUREA, 684-93-5, Route [Inhibitor]: 0, 130 MG/KG VEGETABLE DIET (2.5 MG/D) BEGINNING 7 D POST LAST CARCINOGEN TREATMENT AND CONTINUING FOR STUDY DURATION (S, Strain/Sex: CD-1/MALE, Target Tissue: Type of Lesion: INTESTINE: TUMOR","9/9 (100%), 5/10 (50%), 50%, not calculated"
same,"tumour outcome (control, treated, inhibition, significance)","Carcinogen: METHYLAZOXYMETHANOL, 590-96-5, Dose [Inhibitor]: 8 MG/KG BW/D IN DIET FOR 19 WK STARTING 7 D AFTER CARCINOGEN TREATMENT AND CONTINUING FOR DURATION OF STUDY (STUDY DURAT, Route [Inhibitor]: ORAL, Strain/Sex: SPRAGUE-DAWLEY/MALE, Target Tissue: Type of Lesion: INTESTINES: TUMOR, Dose [Carcinogen]: 30 MG/KG BW ONCE","9/9 (100%), 4/10 (40%), 60%, not calculated"
same,"tumour outcome (control, treated, inhibition, significance)","Carcinogen: METHYLAZOXYMETHANOL, 590-96-5, Dose [Inhibitor]: 8.25 MG/KG BW/D IN DIET FOR 19 WK STARTING 7 D AFTER CARCINOGEN TREATMENT AND CONTINUING FOR DURATION OF STUDY (STUDY DU, Route [Inhibitor]: ORAL, Strain/Sex: SPRAGUE-DAWLEY/MALE, Target Tissue: Type of Lesion: INTESTINES: TUMOR, Dose [Carcinogen]: 30 MG/KG BW ONCE","9/10 (90%), 2/10 (20%), 78%, not calculated and 9/10 (90%), 7/11 (64%), 29%, not calculated"
same,"tumour outcome (control, treated, inhibition, significance)","Carcinogen: METHYLAZOXYMETHANOL, 590-96-5, Dose [Inhibitor]: 12.5 MG/KG BW/D IN DIET FOR 19 WK STARTING 7 D AFTER CARCINOGEN TREATMENT AND CONTINUING FOR DURATION OF STUDY (STUDY DU, Route [Inhibitor]: ORAL, Strain/Sex: SPRAGUE-DAWLEY/MALE, Target Tissue: Type of Lesion: INTESTINES: TUMOR, Dose [Carcinogen]: 30 MG/KG BW ONCE","8/9 (88%), 3/9 (33%), 63%, not calculated"
